The values that follow come from ChEMBL document CHEMBL1154703, “Poly-N-methylated amyloid beta-peptide (Abeta) C-terminal fragments reduce Abeta toxicity in vitro and in Drosophila melanogaster” (J Med Chem, 2009).

Active and inactive are the calls of the source. The calls are words filed in the database; no cut-off is given here. Non-standard residues stand in square brackets, D forms with d. Residues, ends and D or L forms follow the SMILES beside them. Met(O2) = CS(=O)(=O)CC[C@H](N)C(=O)O; NMeI = CC[C@H](C)[C@H](NC)C(=O)O; NMeL = CN[C@@H](CC(C)C)C(=O)O; NMeV = CN[C@H](C(=O)O)C(C)C; Sar = CNCC(=O)O

Assay [1] can be described thus: Inhibition of fibril formation of Abeta (1-40) assessed as fibril levels at 1:5 molar ratio of Abeta and ligand after 72 hrs by transmission electron microscopy relative to untreated control. On the set-up: scale not given: the % may be the effect or the level left.
Assay [2] is described as follows: Inhibition of Abeta (1-42) assessed as blockade of amyloid-like aggregates at 100 uM by Congo red binding assay.
A short description of assay [3]: Inhibition of fibril formation of Abeta (1-40) assessed as fibril levels at 1:10 molar ratio of Abeta and ligand after 72 hrs by transmission electron microscopy relative to untreated control. On the set-up: scale not given: the % may be the effect or the level left.
The test system of a further assay is PC-12. Description: Cytoprotection against Abeta (1-42)-induced toxicity in rat PC12 cells at 10 uM after 4 hrs by MTT assay. In kind it is functional, cell-based.
Assay [4] in a line: Inhibition of Abeta (1-40) assessed as blockade of amyloid-like aggregates at 100 uM by Congo red binding assay.
A short description of assay [5]: Effect on of Abeta (1-40) assessed as structure content at 5 hrs by CD spectroscopy.
Assay [6] is described as follows: Reduction of beta-sheet formation of Abeta (1-42) at 100 uM during 3 hrs incubation by CD spectroscopy.
Assay [7] in a line: Reduction of beta-sheet formation of Abeta (1-40) at 100 uM during 4 to 5 hrs incubation by CD spectroscopy.
The nature of assay [8]: Reduction of beta-sheet formation of Abeta (1-40) at 1:1 molar ratio of Abeta and ligand during 5 hrs incubation by CD spectroscopy.
Assay [9] can be described thus: Inhibition of fibril formation of Abeta (1-40) assessed as change in fibril levels at 100 uM by atomic force microscopy relative to untreated control.
Assay [10] is described as follows: Effect on of Abeta (1-40) assessed as unordered structure content after 5 hrs by CD spectroscopy.
A short description of assay [11]: Inhibition of fibril formation of Abeta (1-40) assessed as fibril levels at 1:1 molar ratio of Abeta and ligand after 72 hrs by transmission electron microscopy relative to untreated control. On the set-up: scale not given: the % may be the effect or the level left.
The subject of assay [12] is Drosophila melanogaster. Description: Improvement in locomotor activity in transgenic Drosophila melanogaster expressing human Abeta (1-42) at 300 uM dosed from embryonic stage and throughout adult life by climbing assay. In kind it is functional, organism-based.
Assay [13] in a line: Reduction of beta-sheet formation of Abeta (1-42) at 100 uM during 4 hrs incubation by CD spectroscopy.
Assay [14] has as its system Drosophila melanogaster. Put plainly: Prolongation of life span in transgenic Drosophila melanogaster expressing human Abeta (1-42) at 300 uM dosed from embryonic stage and throughout adult life. In kind it is functional, organism-based.
The nature of assay [15]: Effect on of Abeta (1-42) assessed as unordered structure content after 5 hrs by CD spectroscopy.
Assay [16] can be described thus: Inhibition of fibril formation of Abeta (1-40) assessed as change in fibril morphology at 100 uM by atomic force microscopy relative to untreated control.
For assay [17], the system named is Drosophila melanogaster. Put plainly: Effect on life span in wild type Drosophila melanogaster at 300 uM dosed from embryonic stage and throughout adult life. Format: functional, organism-based.
A short description of assay [18]: Reduction of beta-sheet formation of Abeta (1-40) at 100 uM during 5 hrs incubation by CD spectroscopy.
Assay [19] in a line: Reduction of beta-sheet formation of Abeta (1-40) at 1:1 molar ratio of Abeta and ligand during 4 hrs incubation by CD spectroscopy.

In the case of `CC(=O)N(C)[C@@H](C)C(=O)N(C)[C@@H](C)C(=O)N(C)[C@@H](C)C(=O)N(C)[C@@H](C)C(=O)N(C)[C@@H](C)C(N)=O`, in assay [1], the Activity worked out at 75%.

For `CC[C@H](C)[C@H](NC(C)=O)C(=O)NCC(=O)N[C@@H](CC(C)C)C(=O)N[C@@H](CCSC)C(=O)N[C@H](C(=O)NCC(N)=O)C(C)C` (Ac-IGLMVG-NH2), the result (in [2]; in the assay with PC-12; in assay [4]) was inactive. Moreover, the Activity in assay [3] is 75%; in assay [5], 25%. Besides, the outcome in [6] and in [7] was Active.

Take `CC[C@H](C)[C@H](NC(C)=O)C(=O)N(C)CC(=O)N[C@@H](CC(C)C)C(=O)N[C@@H](CCSC)C(=O)N[C@H](C(=O)N(C)CC(N)=O)C(C)C` (Ac-I[Sar]LMV[Sar]-NH2): the outcome in [2] and in [4] was inactive. Also, in assay [3], the Activity amounted to 75%. Besides, the outcome (in the assay with PC-12; in assay [6]; in assay [7]) was Active.

Turning to `CC[C@H](C)[C@@H](C(=O)NCC(=O)N(C)[C@@H](CC(C)C)C(=O)N[C@@H](CCSC)C(=O)N(C)[C@H](C(=O)NCC(N)=O)C(C)C)N(C)C(C)=O` (Ac-[NMeI]G[NMeL]M[NMeV]G-NH2), the outcome in assay [2], in assay [8] and in assay [4] was inactive. Also, the results for the Activity in assay [3] and in assay [5] were 50% and 25%, respectively. Moreover, the result (in the assay with PC-12; in assay [6]; in assay [7]) was Active.

Consider `CC[C@H](C)[C@@H](C(=O)N(C)CC(=O)N(C)[C@@H](CC(C)C)C(=O)N[C@@H](CCSC)C(=O)N(C)[C@H](C(=O)N(C)CC(N)=O)C(C)C)N(C)C(C)=O` (Ac-[NMeI][Sar][NMeL]M[NMeV][Sar]-NH2), for which the outcome (in [9]; in assay [2]; in the assay on Drosophila melanogaster [12]; with PC-12; in [13]; with Drosophila melanogaster [14]) was Active. The result in [4], in assay [16], in [18] and in assay [19] was Active. Besides, the Activity was 55% in [10]; 50% in assay [11]; 0% in assay [3]; greater than 50% in [15]; 25% in assay [5]; 0% in assay [1]. In the assay with Drosophila melanogaster [17], the result was inactive.

Consider `CC[C@H](C)[C@@H](C(=O)N(C)CC(=O)N(C)[C@@H](CC(C)C)C(=O)N[C@@H](CCS(C)(=O)=O)C(=O)N(C)[C@H](C(=O)N(C)CC(N)=O)C(C)C)N(C)C(C)=O` (Ac-[NMeI][Sar][NMeL][Met(O2)][NMeV][Sar]-NH2), for which the Activity in [1] was 50%.
